Measurements published in ChEMBL document CHEMBL5625206, “Design, synthesis, and evaluation of novel pleuromutilin aryl acrylate derivatives as promising broad-spectrum antibiotics especially for combatting multi-drug resistant gram-negative bacteria” (Eur J Med Chem, 2023).
Converted amounts (≈) assume the structure as drawn.

Tests used:
Assay type in all cases: functional
[1] = test system: Staphylococcus epidermidis; experiment: Antibacterial activity against Staphylococcus epidermidis ATCC 12228 assessed as bacterial growth inhibition incubated for 24 hrs by CLSI based broth microdilution method
Staphylococcus aureus [2] = experiment: Antibacterial activity against Staphylococcus aureus ATCC 25923 assessed as bacterial growth inhibition incubated for 24 hrs by CLSI based broth microdilution method
Staphylococcus aureus [3] = experiment: Antibacterial activity against Staphylococcus aureus ATCC 29213 assessed as bacterial growth inhibition incubated for 24 hrs by CLSI based broth microdilution method
Staphylococcus aureus [4] = experiment: Antibacterial activity against methicillin-resistant Staphylococcus aureus ATCC 33591 assessed as bacterial growth inhibition incubated for 24 hrs by CLSI based broth microdilution method
Escherichia coli = experiment: Antibacterial activity against Escherichia coli ATCC 25922 assessed as bacterial growth inhibition incubated for 24 hrs by CLSI based broth microdilution method
Acinetobacter baumannii = experiment: Antibacterial activity against Acinetobacter baumannii ATCC 19606 assessed as bacterial growth inhibition incubated for 24 hrs by CLSI based broth microdilution method
[5] = test system: Mesomycoplasma hyopneumoniae; experiment: Anti-mycoplasma activity against Mycoplasma hyopneumoniae J-NCYC10110 assessed as bacterial growth inhibition incubated for 7 days; conditions: J-NCYC10110, 168 h, time 7 day
[6] = test system: Mesomycoplasma hyopneumoniae; experiment: Anti-mycoplasma activity against Mycoplasma hyopneumoniae LH-NCTC10130 assessed as bacterial growth inhibition incubated for 7 days; conditions: Mesomycoplasma hyopneumoniae, LH-NCTC10130, 168 h; time 7 day; read-out: MIC
Mesomycoplasma hyorhinis = experiment: Anti-mycoplasma activity against Mycoplasma hyorhinis BTS-7-NCTC10130 assessed as bacterial growth inhibition incubated for 7 days; conditions: BTS-7-NCTC10130, 168 h, time 7 day
[7] = test system: Mycoplasmoides gallisepticum; experiment: Anti-mycoplasma activity against Mycoplasma gallisepticum MG-R-NCTC10115 assessed as bacterial growth inhibition incubated for 7 days; conditions: MG-R-NCTC10115, 168 h, time 7 day
Mycoplasmopsis synoviae = experiment: Anti-mycoplasma activity against Mycoplasmopsis synoviae MS-MVU1852-NCTC10124 assessed as bacterial growth inhibition incubated for 7 days; conditions: MS-MVU1852-NCTC10124, 168 h, time 7 day

`C=C[C@]1(C)C[C@@H](OC(=O)COC(=O)/C=C/c2ccco2)[C@]2(C)[C@H](C)CC[C@]3(CCC(=O)[C@H]32)[C@@H](C)[C@@H]1O` gave an MIC [1] of 8 µg/mL (≈ 16 µM), an MIC (Staphylococcus aureus [2]) of 64 µg/mL (≈ 128 µM) and an MIC (Staphylococcus aureus [3]) of 8 µg/mL (≈ 16 µM). For the same compound, the MIC (Staphylococcus aureus [4]) was 32 µg/mL (≈ 64.2 µM), the MIC (Escherichia coli) was 64 µg/mL (≈ 128 µM) and the MIC (Acinetobacter baumannii) was 64 µg/mL (≈ 128 µM).

`C=C[C@]1(C)C[C@@H](OC(=O)COC(=O)/C=C/c2ccc(C(F)(F)F)cc2F)[C@]2(C)[C@H](C)CC[C@]3(CCC(=O)[C@H]32)[C@@H](C)[C@@H]1O` was tested, and the MIC [1] was 16 µg/mL (≈ 26.9 µM), the MIC (Staphylococcus aureus [2]) was 8 µg/mL (≈ 13.5 µM) and the MIC (Staphylococcus aureus [3]) was 16 µg/mL (≈ 26.9 µM). It also gave an MIC (Staphylococcus aureus [4]) of 64 µg/mL (≈ 108 µM), an MIC (Escherichia coli) of 128 µg/mL (≈ 215 µM) and an MIC (Acinetobacter baumannii) of over 128 µg/mL.

Work on `C=C[C@]1(C)C[C@@H](OC(=O)COC(=O)/C=C/c2ccc(OC)c(OC)c2)[C@]2(C)[C@H](C)CC[C@]3(CCC(=O)[C@H]32)[C@@H](C)[C@@H]1O` yielded an MIC [1] of 16 µg/mL (≈ 28.1 µM), an MIC (Staphylococcus aureus [2]) of 4 µg/mL (≈ 7.03 µM) and an MIC (Staphylococcus aureus [3]) of 8 µg/mL (≈ 14.1 µM). The MIC (Staphylococcus aureus [4]) was 32 µg/mL (≈ 56.3 µM), the MIC (Escherichia coli) was 64 µg/mL (≈ 113 µM) and the MIC (Acinetobacter baumannii) was over 128 µg/mL.

For `C=C[C@]1(C)C[C@@H](OC(=O)CSCCN(CC)CC)[C@]2(C)[C@H](C)CC[C@]3(CCC(=O)[C@H]32)[C@@H](C)[C@@H]1O` [TIAMULIN], the MIC [1] was 16 µg/mL (≈ 32.4 µM), the MIC (Staphylococcus aureus [2]) was 64 µg/mL (≈ 130 µM) and the MIC (Staphylococcus aureus [3]) was over 128 µg/mL. The MIC (Staphylococcus aureus [4]) was 128 µg/mL (≈ 259 µM), the MIC (Escherichia coli) was 64 µg/mL (≈ 130 µM) and the MIC (Acinetobacter baumannii) was 64 µg/mL (≈ 130 µM). It also gave an MIC [5] of 0.03 µg/mL (≈ 0.0608 µM), an MIC [6] of 0.015 µg/mL (≈ 0.0304 µM) and an MIC (Mesomycoplasma hyorhinis) of 0.03 µg/mL (≈ 0.0608 µM). For the same compound, the MIC [7] was 0.125 µg/mL (≈ 0.253 µM) and the MIC (Mycoplasmopsis synoviae) was 2 µg/mL (≈ 4.05 µM).

`C=C[C@]1(C)C[C@@H](OC(=O)COC(=O)/C=C/c2cccc(Cl)c2)[C@]2(C)[C@H](C)CC[C@]3(CCC(=O)[C@H]32)[C@@H](C)[C@@H]1O` gave an MIC [1] of 8 µg/mL (≈ 14.7 µM), an MIC (Staphylococcus aureus [2]) of 16 µg/mL (≈ 29.5 µM) and an MIC (Staphylococcus aureus [3]) of 32 µg/mL (≈ 58.9 µM). It also gave an MIC (Staphylococcus aureus [4]) of 32 µg/mL (≈ 58.9 µM), an MIC (Escherichia coli) of 64 µg/mL (≈ 118 µM) and an MIC (Acinetobacter baumannii) of 128 µg/mL (≈ 236 µM).

In the case of `C=C[C@]1(C)C[C@@H](OC(=O)COC(=O)/C=C/c2ccccc2)[C@]2(C)[C@H](C)CC[C@]3(CCC(=O)[C@H]32)[C@@H](C)[C@@H]1O`, the MIC [1] is reported as 16 µg/mL (≈ 31.5 µM), the MIC (Staphylococcus aureus [2]) is reported as 4 µg/mL (≈ 7.86 µM) and the MIC (Staphylococcus aureus [3]) is reported as 16 µg/mL (≈ 31.5 µM). For the same compound, the MIC (Staphylococcus aureus [4]) was 32 µg/mL (≈ 62.9 µM), the MIC (Escherichia coli) was 128 µg/mL (≈ 252 µM) and the MIC (Acinetobacter baumannii) was over 128 µg/mL.

For `C=C[C@]1(C)C[C@@H](OC(=O)COC(=O)/C=C/c2ccc(C#N)cc2)[C@]2(C)[C@H](C)CC[C@]3(CCC(=O)[C@H]32)[C@@H](C)[C@@H]1O`, the MIC [1] was 64 µg/mL (≈ 120 µM), the MIC (Staphylococcus aureus [2]) was 32 µg/mL (≈ 60 µM) and the MIC (Staphylococcus aureus [3]) was 64 µg/mL (≈ 120 µM). It also gave an MIC (Staphylococcus aureus [4]) of 64 µg/mL (≈ 120 µM), an MIC (Escherichia coli) of over 128 µg/mL and an MIC (Acinetobacter baumannii) of over 128 µg/mL.

`C=C[C@]1(C)C[C@@H](OC(=O)COC(=O)/C=C/c2ccc(F)c(Cl)c2)[C@]2(C)[C@H](C)CC[C@]3(CCC(=O)[C@H]32)[C@@H](C)[C@@H]1O` showed an MIC [1] of 32 µg/mL (≈ 57 µM), an MIC (Staphylococcus aureus [2]) of 16 µg/mL (≈ 28.5 µM) and an MIC (Staphylococcus aureus [3]) of 32 µg/mL (≈ 57 µM). For the same compound, the MIC (Staphylococcus aureus [4]) was 64 µg/mL (≈ 114 µM), the MIC (Escherichia coli) was 64 µg/mL (≈ 114 µM) and the MIC (Acinetobacter baumannii) was over 128 µg/mL.
